{"source": "ChEMBL document CHEMBL5465560", "about": "“Selectivity Literature for EUbOPEN Chemogenomic Library” (2024)", "key": {"[1]": {"target": "T1, Mitogen-activated protein kinase kinase kinase 5 (Homo sapiens) (UniProt Q99683)", "T1 sequence (whole entry)": "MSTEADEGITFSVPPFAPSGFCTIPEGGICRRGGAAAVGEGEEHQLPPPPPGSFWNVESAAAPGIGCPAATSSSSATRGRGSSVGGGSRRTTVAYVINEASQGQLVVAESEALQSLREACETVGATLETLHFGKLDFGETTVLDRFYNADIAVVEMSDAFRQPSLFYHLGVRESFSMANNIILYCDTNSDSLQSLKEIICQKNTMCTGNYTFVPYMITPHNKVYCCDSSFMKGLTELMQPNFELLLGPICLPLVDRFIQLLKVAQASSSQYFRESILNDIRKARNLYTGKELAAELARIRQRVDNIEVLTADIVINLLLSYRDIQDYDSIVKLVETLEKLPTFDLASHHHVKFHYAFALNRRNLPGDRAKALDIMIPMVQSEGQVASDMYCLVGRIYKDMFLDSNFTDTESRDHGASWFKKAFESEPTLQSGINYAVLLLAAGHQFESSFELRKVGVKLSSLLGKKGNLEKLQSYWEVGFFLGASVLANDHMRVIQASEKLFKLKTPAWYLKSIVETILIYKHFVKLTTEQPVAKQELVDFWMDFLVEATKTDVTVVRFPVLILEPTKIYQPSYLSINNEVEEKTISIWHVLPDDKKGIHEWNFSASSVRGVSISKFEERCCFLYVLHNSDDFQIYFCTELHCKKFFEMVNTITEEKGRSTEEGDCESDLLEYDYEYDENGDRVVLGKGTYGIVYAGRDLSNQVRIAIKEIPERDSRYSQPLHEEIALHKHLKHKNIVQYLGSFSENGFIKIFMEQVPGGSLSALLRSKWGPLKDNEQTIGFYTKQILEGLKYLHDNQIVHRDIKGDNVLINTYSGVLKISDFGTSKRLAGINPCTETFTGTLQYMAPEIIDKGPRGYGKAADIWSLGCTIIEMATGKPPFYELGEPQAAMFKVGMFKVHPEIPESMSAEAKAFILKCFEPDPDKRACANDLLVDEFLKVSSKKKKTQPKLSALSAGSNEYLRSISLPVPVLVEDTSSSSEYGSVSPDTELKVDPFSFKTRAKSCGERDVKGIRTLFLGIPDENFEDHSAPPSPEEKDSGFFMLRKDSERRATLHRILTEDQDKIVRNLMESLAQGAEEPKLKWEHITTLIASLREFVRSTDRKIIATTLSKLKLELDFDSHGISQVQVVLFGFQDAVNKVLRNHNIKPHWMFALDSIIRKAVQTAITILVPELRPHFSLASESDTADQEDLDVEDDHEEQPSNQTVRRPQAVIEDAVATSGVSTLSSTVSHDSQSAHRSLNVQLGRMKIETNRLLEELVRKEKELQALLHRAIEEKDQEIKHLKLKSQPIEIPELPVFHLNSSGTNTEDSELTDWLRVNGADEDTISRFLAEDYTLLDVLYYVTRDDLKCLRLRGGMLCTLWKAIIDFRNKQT", "experiment": "Selectivity interaction (Kinase panel (KiNativ target engagement assay in Jurkat cells)) EUB0001635a MAP3K5", "type": "cell-based", "details": "Selectivity number of off-targets 0.0, Selectivity number of targets 233.0, Source Knowledge https://www.sciencedirect.com/science/article/pii/S2451945619300674?via%3Dihub, at 1 µM"}, "[2]": {"target": "Calcium/calmodulin-dependent protein kinase type 1 (Homo sapiens) (UniProt Q14012)", "sequence (Q14012 whole entry, looked up)": "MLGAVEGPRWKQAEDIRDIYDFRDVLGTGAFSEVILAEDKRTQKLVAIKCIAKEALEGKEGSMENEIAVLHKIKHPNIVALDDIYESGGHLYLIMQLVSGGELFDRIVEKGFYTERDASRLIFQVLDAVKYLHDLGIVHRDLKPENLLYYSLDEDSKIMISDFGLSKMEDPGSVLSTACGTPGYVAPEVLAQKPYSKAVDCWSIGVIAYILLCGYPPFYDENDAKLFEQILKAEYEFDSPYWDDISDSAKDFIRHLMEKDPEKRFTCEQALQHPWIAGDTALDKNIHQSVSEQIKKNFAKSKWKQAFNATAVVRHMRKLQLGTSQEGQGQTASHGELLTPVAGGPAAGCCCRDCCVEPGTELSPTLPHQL", "experiment": "Selectivity interaction (KinomeScan (DiscoverX)) EUB0000666a CAMK1", "details": "at 10 µM"}, "[3]": {"target": "T2, Serine/threonine-protein kinase LATS1 (Homo sapiens) (UniProt O95835)", "T2 sequence (whole entry)": "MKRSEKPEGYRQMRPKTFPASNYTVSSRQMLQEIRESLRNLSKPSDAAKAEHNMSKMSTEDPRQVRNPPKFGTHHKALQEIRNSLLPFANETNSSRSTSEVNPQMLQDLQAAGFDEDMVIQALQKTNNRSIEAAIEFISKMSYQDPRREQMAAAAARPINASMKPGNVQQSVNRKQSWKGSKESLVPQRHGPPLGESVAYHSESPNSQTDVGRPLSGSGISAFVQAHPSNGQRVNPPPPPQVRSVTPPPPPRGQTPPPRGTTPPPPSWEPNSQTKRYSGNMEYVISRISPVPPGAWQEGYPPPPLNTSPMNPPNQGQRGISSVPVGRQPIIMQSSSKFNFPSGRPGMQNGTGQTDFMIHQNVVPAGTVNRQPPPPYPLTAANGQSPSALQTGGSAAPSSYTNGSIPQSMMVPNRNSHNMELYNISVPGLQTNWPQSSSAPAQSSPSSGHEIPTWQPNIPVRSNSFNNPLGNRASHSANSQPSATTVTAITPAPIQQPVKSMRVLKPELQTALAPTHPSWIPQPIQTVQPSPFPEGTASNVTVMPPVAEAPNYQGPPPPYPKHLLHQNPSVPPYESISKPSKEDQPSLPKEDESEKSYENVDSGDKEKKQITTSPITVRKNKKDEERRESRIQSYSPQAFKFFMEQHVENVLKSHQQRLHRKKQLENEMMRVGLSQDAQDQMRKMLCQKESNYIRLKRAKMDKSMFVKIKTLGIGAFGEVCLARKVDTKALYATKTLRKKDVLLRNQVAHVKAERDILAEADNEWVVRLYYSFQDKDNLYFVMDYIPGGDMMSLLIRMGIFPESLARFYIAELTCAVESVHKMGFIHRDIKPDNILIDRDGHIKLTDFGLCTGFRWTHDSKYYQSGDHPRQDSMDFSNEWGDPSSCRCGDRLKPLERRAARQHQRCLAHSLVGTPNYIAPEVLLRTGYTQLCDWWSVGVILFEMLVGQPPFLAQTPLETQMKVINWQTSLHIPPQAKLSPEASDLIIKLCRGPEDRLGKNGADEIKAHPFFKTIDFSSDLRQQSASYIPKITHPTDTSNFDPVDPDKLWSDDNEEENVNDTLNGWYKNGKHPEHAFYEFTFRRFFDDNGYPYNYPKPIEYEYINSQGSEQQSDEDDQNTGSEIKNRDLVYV", "experiment": "Selectivity interaction (KinomeScan (DiscoverX)) EUB0000607a LATS1", "details": "at 10 µM"}, "[4]": {"target": "T3, Mitogen-activated protein kinase 13 (Homo sapiens) (UniProt O15264)", "T3 sequence (whole entry)": "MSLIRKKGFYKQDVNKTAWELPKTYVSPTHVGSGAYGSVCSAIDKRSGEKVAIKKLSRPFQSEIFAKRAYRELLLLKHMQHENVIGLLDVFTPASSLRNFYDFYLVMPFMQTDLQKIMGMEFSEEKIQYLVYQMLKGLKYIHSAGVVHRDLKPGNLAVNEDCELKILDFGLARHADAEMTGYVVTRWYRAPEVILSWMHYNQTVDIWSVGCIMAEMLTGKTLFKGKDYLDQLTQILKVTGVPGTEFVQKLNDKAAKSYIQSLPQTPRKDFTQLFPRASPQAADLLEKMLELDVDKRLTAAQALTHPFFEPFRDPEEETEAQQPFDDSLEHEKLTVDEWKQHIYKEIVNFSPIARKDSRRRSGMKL", "experiment": "Selectivity interaction (Kinase panel (Invitrogen)) EUB0000639a MAPK13", "details": "at 200 nM"}}}
{"smiles": "C=CC(=O)Nc1ccc(C(=O)Nc2[nH]nc3c2CN(C(=O)N[C@H](CN(C)C)c2ccccc2)C3(C)C)cc1", "values": [{"measurement": "% of engagement", "setting": "[1]", "value": 3.6, "unit": "%"}]}
{"smiles": "O=C(NOC[C@H](O)CO)c1ccc(F)c(F)c1Nc1ccc(I)cc1F", "values": [{"measurement": "% of control", "setting": "[2]", "value": 98, "unit": "%"}]}
{"smiles": "CNC(=O)Nc1ccc(-c2nc(N3CC4CCC(C3)O4)c3cnn(C4CCC5(CC4)OCCO5)c3n2)cc1", "values": [{"measurement": "% of control", "setting": "[3]", "value": 95, "unit": "%"}]}
{"smiles": "CC[C@@H]1[C@H](F)C(=O)N[C@@H]1COc1nccc2cc(C(N)=O)c(OC)cc12", "note": "[ZIMLOVISERTIB]", "values": [{"measurement": "% of inhibition", "setting": "[4]", "value": 6.06, "unit": "%"}]}
